Read-outs that look alike come from different tables or passages of the source.
How the values were obtained:
Assay in all cases: biochemical
Design in all cases: DiscoveRx KINOMEscan active site-directed competition binding; percent of control kinase bound to immobilised ligand
MTOR = MTOR (Homo sapiens, UniProt P42345)
p38-beta = molecular target: T1, p38-beta (Homo sapiens, UniProt Q15759)
T1 construct: gene MAPK11

S6K1 = molecular target: T2, S6K1 (Homo sapiens, UniProt P23443)
T2 construct: gene RPS6KB1
T2 sequence (P23443 whole entry): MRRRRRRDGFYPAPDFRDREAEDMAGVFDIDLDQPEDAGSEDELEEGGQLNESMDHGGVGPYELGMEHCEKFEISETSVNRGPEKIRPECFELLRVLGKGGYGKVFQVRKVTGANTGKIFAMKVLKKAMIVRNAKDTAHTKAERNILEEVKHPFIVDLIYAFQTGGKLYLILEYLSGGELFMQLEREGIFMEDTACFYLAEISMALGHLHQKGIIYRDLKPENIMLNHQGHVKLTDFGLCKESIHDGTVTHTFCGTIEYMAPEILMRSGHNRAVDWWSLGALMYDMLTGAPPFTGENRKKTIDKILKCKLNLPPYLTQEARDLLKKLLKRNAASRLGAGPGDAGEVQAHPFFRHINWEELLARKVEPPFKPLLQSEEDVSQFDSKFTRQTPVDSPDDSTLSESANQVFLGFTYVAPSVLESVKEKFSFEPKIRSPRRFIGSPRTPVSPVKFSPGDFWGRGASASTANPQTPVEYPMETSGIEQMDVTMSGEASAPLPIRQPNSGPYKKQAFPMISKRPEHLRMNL

QSK = molecular target: T3, QSK (Homo sapiens, UniProt Q9Y2K2)
T3 construct: gene SIK3

INSR = INSR (Homo sapiens, UniProt P06213)
ALK = ALK (Homo sapiens, UniProt Q9UM73)
Chain of ALK (Q9UM73 whole entry): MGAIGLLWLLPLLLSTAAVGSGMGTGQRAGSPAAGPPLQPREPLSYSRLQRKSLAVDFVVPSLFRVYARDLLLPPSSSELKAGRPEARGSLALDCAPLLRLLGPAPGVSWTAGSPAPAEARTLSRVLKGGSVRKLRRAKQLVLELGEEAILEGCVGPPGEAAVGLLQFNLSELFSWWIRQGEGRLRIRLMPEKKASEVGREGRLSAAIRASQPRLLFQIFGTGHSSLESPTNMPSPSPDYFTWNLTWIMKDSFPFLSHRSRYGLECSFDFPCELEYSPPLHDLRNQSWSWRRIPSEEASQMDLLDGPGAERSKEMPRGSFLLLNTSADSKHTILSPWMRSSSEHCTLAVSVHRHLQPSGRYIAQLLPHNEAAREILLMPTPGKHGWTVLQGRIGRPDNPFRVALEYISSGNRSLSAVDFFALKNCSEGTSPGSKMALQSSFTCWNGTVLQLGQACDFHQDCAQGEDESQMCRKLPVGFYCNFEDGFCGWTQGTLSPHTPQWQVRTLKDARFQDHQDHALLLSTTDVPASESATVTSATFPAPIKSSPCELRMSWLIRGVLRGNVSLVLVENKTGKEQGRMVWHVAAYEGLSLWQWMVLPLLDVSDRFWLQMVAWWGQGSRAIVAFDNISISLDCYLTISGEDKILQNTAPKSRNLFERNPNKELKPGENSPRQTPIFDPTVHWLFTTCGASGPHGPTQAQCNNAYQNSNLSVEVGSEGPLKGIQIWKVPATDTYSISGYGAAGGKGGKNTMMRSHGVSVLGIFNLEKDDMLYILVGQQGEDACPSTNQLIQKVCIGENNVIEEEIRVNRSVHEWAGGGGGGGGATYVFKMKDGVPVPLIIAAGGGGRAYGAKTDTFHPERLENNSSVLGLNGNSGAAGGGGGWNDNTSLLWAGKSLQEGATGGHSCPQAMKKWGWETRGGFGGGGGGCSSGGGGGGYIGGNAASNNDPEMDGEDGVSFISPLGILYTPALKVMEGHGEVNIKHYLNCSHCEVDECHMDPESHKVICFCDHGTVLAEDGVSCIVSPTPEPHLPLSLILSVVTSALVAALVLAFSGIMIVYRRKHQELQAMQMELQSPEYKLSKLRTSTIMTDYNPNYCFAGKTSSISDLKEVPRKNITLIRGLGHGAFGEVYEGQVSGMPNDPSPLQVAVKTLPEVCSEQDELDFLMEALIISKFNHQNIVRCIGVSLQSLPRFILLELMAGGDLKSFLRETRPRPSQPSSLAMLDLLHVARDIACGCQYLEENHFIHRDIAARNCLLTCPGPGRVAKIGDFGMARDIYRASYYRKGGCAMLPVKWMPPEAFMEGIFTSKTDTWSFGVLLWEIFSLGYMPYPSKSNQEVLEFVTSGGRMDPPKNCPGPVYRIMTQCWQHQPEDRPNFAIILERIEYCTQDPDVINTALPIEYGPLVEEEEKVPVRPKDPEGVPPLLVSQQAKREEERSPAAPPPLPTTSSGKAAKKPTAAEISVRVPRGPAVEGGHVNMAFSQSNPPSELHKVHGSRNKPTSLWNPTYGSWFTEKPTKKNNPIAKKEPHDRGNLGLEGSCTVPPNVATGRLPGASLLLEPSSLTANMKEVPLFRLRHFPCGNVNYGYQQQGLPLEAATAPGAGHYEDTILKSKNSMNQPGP

MARK1 = MARK1 (Homo sapiens, UniProt Q9P0L2)
MARK2 = MARK2 (Homo sapiens, UniProt Q7KZI7)
Chain of MARK2 (Q7KZI7 whole entry): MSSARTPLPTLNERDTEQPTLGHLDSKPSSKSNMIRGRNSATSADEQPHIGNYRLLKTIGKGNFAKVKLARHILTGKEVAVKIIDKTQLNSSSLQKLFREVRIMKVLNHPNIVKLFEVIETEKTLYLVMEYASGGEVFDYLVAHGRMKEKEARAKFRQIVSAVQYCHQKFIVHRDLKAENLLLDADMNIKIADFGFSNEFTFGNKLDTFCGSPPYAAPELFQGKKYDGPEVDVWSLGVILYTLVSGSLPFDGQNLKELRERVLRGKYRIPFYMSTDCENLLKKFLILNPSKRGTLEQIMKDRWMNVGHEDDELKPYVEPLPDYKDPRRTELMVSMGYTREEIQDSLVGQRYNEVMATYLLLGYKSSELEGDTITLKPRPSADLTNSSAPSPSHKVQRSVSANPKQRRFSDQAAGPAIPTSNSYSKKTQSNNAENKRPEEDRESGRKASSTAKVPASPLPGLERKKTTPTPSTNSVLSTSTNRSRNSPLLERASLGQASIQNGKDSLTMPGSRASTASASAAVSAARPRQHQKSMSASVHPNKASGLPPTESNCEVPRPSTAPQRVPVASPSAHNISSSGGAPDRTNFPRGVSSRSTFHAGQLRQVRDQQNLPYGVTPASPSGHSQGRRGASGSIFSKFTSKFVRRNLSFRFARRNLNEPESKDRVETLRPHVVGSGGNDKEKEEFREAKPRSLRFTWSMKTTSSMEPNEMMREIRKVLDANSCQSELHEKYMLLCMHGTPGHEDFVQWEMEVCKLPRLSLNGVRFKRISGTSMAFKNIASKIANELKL

PRKCD = PRKCD (Homo sapiens, UniProt Q05655)
Chain of PRKCD (Q05655 whole entry): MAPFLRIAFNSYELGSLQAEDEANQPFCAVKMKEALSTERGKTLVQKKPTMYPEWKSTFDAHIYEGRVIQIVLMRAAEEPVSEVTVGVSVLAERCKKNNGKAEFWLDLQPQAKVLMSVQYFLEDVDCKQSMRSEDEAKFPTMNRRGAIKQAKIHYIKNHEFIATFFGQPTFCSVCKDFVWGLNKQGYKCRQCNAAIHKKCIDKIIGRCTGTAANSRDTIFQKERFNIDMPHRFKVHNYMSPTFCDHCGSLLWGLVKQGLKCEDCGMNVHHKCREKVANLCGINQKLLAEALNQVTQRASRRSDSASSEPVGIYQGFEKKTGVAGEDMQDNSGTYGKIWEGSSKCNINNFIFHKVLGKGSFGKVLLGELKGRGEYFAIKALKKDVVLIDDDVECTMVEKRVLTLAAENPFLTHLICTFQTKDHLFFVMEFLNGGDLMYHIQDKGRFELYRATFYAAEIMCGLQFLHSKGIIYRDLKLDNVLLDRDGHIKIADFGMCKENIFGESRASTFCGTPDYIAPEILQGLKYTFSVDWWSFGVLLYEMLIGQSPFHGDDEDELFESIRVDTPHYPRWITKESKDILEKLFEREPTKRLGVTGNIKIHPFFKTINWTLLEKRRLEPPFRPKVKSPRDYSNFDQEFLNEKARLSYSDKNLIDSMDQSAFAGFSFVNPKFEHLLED

RIPK4 = molecular target: T4, RIPK4 (Homo sapiens, UniProt P57078)
T4 sequence (P57078 1-832): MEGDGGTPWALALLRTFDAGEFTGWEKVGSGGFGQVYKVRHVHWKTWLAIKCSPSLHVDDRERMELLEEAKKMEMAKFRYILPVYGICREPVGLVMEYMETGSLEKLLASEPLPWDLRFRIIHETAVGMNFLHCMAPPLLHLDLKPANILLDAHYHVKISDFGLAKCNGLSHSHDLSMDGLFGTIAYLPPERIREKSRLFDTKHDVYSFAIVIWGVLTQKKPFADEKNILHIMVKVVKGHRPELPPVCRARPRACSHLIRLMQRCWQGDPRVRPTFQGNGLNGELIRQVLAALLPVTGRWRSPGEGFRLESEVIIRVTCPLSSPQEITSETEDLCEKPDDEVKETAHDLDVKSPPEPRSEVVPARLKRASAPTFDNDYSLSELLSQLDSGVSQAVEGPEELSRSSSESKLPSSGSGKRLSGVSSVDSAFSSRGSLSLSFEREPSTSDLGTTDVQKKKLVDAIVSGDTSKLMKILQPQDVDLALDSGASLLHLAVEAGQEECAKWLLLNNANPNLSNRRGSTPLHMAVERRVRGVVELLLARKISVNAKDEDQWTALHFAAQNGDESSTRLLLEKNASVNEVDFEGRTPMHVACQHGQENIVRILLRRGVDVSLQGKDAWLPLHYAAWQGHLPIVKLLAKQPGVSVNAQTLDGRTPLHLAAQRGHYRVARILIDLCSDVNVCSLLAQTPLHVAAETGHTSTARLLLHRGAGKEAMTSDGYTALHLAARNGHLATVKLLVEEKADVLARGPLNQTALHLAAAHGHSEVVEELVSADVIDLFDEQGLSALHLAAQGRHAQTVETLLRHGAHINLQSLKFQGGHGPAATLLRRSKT

MYLK2 = MYLK2 (Homo sapiens, UniProt Q9H1R3)
LYN = LYN (Homo sapiens, UniProt P07948)
Chain of LYN (P07948 whole entry): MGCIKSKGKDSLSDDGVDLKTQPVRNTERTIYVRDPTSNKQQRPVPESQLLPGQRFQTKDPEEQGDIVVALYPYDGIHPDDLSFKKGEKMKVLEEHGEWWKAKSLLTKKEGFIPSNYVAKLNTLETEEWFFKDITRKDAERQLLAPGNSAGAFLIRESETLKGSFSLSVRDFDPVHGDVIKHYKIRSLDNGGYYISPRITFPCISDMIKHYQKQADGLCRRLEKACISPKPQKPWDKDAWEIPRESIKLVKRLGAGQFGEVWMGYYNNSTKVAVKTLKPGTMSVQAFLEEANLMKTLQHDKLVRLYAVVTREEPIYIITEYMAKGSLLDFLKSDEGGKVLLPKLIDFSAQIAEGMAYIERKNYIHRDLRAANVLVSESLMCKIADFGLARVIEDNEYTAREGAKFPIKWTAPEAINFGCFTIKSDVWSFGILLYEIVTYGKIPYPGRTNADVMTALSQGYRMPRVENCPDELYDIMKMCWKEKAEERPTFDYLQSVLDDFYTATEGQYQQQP

PKAC-beta = molecular target: T5, PKAC-beta (Homo sapiens, UniProt P22694)
T5 construct: gene PRKACB

PCTK1 = molecular target: T6, PCTK1 (Homo sapiens, UniProt Q00536)
T6 construct: gene CDK16
T6 sequence (Q00536 whole entry): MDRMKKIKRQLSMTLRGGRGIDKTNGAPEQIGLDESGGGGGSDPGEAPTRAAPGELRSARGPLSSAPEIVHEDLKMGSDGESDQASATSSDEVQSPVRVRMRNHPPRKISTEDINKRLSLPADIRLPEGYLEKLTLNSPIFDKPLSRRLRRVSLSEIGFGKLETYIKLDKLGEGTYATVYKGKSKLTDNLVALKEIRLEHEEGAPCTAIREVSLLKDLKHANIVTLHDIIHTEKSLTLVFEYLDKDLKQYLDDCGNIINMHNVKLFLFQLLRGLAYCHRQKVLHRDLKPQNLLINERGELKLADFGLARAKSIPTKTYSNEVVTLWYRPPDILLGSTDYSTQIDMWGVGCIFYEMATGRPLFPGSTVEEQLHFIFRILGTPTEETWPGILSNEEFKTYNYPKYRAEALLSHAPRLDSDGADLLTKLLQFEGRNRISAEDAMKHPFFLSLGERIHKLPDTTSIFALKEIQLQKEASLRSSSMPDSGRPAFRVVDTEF

PFTAIRE2 = molecular target: T7, PFTAIRE2 (Homo sapiens, UniProt Q96Q40)
T7 construct: gene CDK15

MST3 = molecular target: T8, MST3 (Homo sapiens, UniProt Q9Y6E0)
T8 construct: gene STK24

MST1R = MST1R (Homo sapiens, UniProt Q04912)
EPHA2 = EPHA2 (Homo sapiens, UniProt P29317)
[1] = read-out: Talazoparib (BMN 673) / %Ctrl @ 10000nM
[2] = read-out: Olaparib / %Ctrl @ 10000nM
[3] = read-out: Rucaparib / %Ctrl @ 10000nM, binding competition, % of control
[4] = read-out: Niraparib (MK-4827) / %Ctrl @ 10000nM

T1 sequence (Q15759 whole entry): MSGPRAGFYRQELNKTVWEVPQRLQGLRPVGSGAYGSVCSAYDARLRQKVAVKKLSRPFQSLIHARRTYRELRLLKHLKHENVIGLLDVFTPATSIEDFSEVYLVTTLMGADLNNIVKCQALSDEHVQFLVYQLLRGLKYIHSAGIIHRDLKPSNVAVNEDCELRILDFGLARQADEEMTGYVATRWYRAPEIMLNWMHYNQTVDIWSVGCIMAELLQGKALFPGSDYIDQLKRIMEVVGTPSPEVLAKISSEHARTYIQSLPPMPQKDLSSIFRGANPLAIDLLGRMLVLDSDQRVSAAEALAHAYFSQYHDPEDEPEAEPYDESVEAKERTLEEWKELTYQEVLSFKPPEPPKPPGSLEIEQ

Cn1ncnc1[C@H]1c2n[nH]c(=O)c3cc(F)cc(c23)N[C@@H]1c1ccc(F)cc1 [Talazoparib]
percent of control binding at 10 µM (MTOR; [1]): 35%
percent of control binding at 10 µM (p38-beta; [1]): 86%
percent of control binding at 10 µM (S6K1; [1]): 62%
percent of control binding at 10 µM (QSK; [1]): 75%
percent of control binding at 10 µM (INSR; [1]): 62%
percent of control binding at 10 µM (ALK; [1]): 100%
percent of control binding at 10 µM (MARK1; [1]): 89%
percent of control binding at 10 µM (MARK2; [1]): 100%
percent of control binding at 10 µM (PRKCD; [1]): 86%
percent of control binding at 10 µM (RIPK4; [1]): 69%
percent of control binding at 10 µM (MYLK2; [1]): 100%
percent of control binding at 10 µM (LYN; [1]): 87%
percent of control binding at 10 µM (PKAC-beta; [1]): 56%
percent of control binding at 10 µM (PCTK1; [1]): 86%
percent of control binding at 10 µM (PFTAIRE2; [1]): 100%
percent of control binding at 10 µM (MST3; [1]): 99%
percent of control binding at 10 µM (MST1R; [1]): 99%
percent of control binding at 10 µM (EPHA2; [1]): 100%

O=C(c1cc(Cc2n[nH]c(=O)c3ccccc23)ccc1F)N1CCN(C(=O)C2CC2)CC1 [Olaparib]
percent of control binding at 10 µM (MTOR; [2]): 94%
percent of control binding at 10 µM (p38-beta; [2]): 90%
percent of control binding at 10 µM (S6K1; [2]): 73%
percent of control binding at 10 µM (QSK; [2]): 83%
percent of control binding at 10 µM (INSR; [2]): 85%
percent of control binding at 10 µM (ALK; [2]): 86%
percent of control binding at 10 µM (MARK1; [2]): 93%
percent of control binding at 10 µM (MARK2; [2]): 100%
percent of control binding at 10 µM (PRKCD; [2]): 95%
percent of control binding at 10 µM (RIPK4; [2]): 81%
percent of control binding at 10 µM (MYLK2; [2]): 100%
percent of control binding at 10 µM (LYN; [2]): 93%
percent of control binding at 10 µM (PKAC-beta; [2]): 100%
percent of control binding at 10 µM (PCTK1; [2]): 99%
percent of control binding at 10 µM (PFTAIRE2; [2]): 100%
percent of control binding at 10 µM (MST3; [2]): 99%
percent of control binding at 10 µM (MST1R; [2]): 84%
percent of control binding at 10 µM (EPHA2; [2]): 97%

CNCc1ccc(-c2[nH]c3cc(F)cc4c3c2CCNC4=O)cc1 [Rucaparib]
percent of control binding at 10 µM (MTOR; [3]): 96%
percent of control binding at 10 µM (p38-beta; [3]): 93%
percent of control binding at 10 µM (S6K1; [3]): 60%
percent of control binding at 10 µM (QSK; [3]): 77%
percent of control binding at 10 µM (INSR; [3]): 86%
percent of control binding at 10 µM (ALK; [3]): 45%
percent of control binding at 10 µM (MARK1; [3]): 85%
percent of control binding at 10 µM (MARK2; [3]): 92%
percent of control binding at 10 µM (PRKCD; [3]): 83%
percent of control binding at 10 µM (RIPK4; [3]): 75%
percent of control binding at 10 µM (MYLK2; [3]): 74%
percent of control binding at 10 µM (LYN; [3]): 89%
percent of control binding at 10 µM (PKAC-beta; [3]): 99%
percent of control binding at 10 µM (PCTK1; [3]): 13%
percent of control binding at 10 µM (PFTAIRE2; [3]): 100%
percent of control binding at 10 µM (MST3; [3]): 89%
percent of control binding at 10 µM (MST1R; [3]): 91%
percent of control binding at 10 µM (EPHA2; [3]): 100%

NC(=O)c1cccc2cn(-c3ccc([C@@H]4CCCNC4)cc3)nc12 [Niraparib]
percent of control binding at 10 µM (MTOR; [4]): 85%
percent of control binding at 10 µM (p38-beta; [4]): 99%
percent of control binding at 10 µM (S6K1; [4]): 94%
percent of control binding at 10 µM (QSK; [4]): 93%
percent of control binding at 10 µM (INSR; [4]): 86%
percent of control binding at 10 µM (ALK; [4]): 98%
percent of control binding at 10 µM (MARK1; [4]): 93%
percent of control binding at 10 µM (MARK2; [4]): 75%
percent of control binding at 10 µM (PRKCD; [4]): 93%
percent of control binding at 10 µM (RIPK4; [4]): 81%
percent of control binding at 10 µM (MYLK2; [4]): 92%
percent of control binding at 10 µM (LYN; [4]): 71%
percent of control binding at 10 µM (PKAC-beta; [4]): 96%
percent of control binding at 10 µM (PCTK1; [4]): 47%
percent of control binding at 10 µM (PFTAIRE2; [4]): 96%
percent of control binding at 10 µM (MST3; [4]): 74%
percent of control binding at 10 µM (MST1R; [4]): 88%
percent of control binding at 10 µM (EPHA2; [4]): 94%

Source: publication PMC7026418, “The kinase polypharmacology landscape of clinical PARP inhibitors” (Scientific Reports, 2020)
